Measured values: patent publication US10752587B2, “Homobispiperidinyl derivatives as liver X receptor beta agonists, compositions and their use” (Merck Sharp & Dohme Corp., priority 2015, dated 2020)
Like-named read-outs stand apart in the source and are kept apart here.

How the values were obtained:
[1] = target: T1, glutathione-S-transferase (GST) tagged LXRbeta LBD (ligand binding domain) (Homo sapiens, UniProt P55055); test: LanthaScreen TR-FRET Liver X Receptor Coactivator Assay, co-activator recruitment to LXRbeta LBD; format: biochemical
T1 construct: purchased Invitrogen pv4658.pps
T1 sequence (P55055 222-460 limits assumed): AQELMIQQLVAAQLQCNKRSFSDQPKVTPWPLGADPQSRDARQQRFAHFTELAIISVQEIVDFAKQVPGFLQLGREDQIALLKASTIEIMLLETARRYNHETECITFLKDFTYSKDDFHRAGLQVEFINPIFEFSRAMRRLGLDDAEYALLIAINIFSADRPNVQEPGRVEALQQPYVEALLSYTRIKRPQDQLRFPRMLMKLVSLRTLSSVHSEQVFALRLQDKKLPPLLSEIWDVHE
Method in brief: (§1)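 Compound-induced coactivator recruitment by the GST-fused ligand binding domain, detected as TR-FRET between Tb-labelled anti-GST antibody and fluorescein-tagged coactivator peptide after room-temperature incubation. IP and Emax expressed versus T0901317 as reference agonist.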

[2] = target: T2, glutathione-S-transferase (GST) tagged LXRalpha LBD (ligand binding domain) (Homo sapiens, UniProt Q13133); test: LanthaScreen TR-FRET Liver X Receptor Coactivator Assay, co-activator recruitment to LXRalpha LBD; format: biochemical
T2 construct: purchased Invitrogen pv4655
T2 sequence (Q13133 209-447 limits assumed): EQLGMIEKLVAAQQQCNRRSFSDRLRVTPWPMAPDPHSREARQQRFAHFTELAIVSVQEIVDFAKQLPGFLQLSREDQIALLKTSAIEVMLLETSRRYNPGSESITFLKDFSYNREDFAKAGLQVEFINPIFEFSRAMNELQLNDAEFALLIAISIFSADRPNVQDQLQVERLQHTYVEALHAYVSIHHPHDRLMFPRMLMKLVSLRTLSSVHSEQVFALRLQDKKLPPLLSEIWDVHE
Method in brief: as §1

[3] = efficacy at max dose, in relation to reference dual agonist T0901317, read-out: LXR beta Activity @ max dose (%)
[4] = potency (Inflection Point, IP), co-activator recruitment to LXRbeta LBD, in relation to T0901317, read-out: LXR beta IP
[5] = efficacy at max dose, in relation to reference dual agonist T0901317, read-out: LXR alpha Activity @ max dose (%)
[6] = potency (Inflection Point, IP), co-activator recruitment to LXRalpha LBD, in relation to T0901317, read-out: LXR alpha IP
[7] = potency (Inflection Point, IP), co-activator recruitment to LXRalpha LBD, in relation to T0901317
[8] = co-activator recruitment to GST-LXRbeta LBD, TR-FRET, read-out: LXR beta IP (Inflection Point, potency)
[9] = efficacy in relation to reference dual agonist T0901317, read-out: LXR beta Activity @ max dose
[10] = co-activator recruitment to GST-LXRalpha LBD, TR-FRET
[11] = efficacy in relation to reference dual agonist T0901317, read-out: LXR alpha Activity @ max dose
[12] = efficacy at max dose, in relation to reference dual agonist T0901317

Emax [1, 3]	EC50 [1, 4]	Emax [2, 5]	LXR alpha IP (nM) [2, 7]	SMILES	also measured
86%	9 nM	22%		COc1cccc([C@@](O)(C(=O)N2CCC(CC3CCN(c4ccc(C(=O)N(C)C)c(Cl)n4)CC3)CC2)C(F)(F)C(F)(F)F)c1 [Example 7-79, 2-chloro-N,N-dimethyl-6-[4-({1-[(2R)-3,3,4,4,4-pentafluoro-2-hydroxy-2-(3-methoxyphenyl)butanoyl]piperidin-4-yl}methyl)piperidin-1-yl]pyridine-3-carboxamide]	EC50 [2, 6]: 429 nM
48%	92 nM	2%	NO IP	COc1cccc([C@@](O)(C(=O)N2CC(CC3CCN(c4ccc(C(=O)N(C)C)c(Cl)c4)CC3)C2)C(F)F)c1 [Example 2-70, 2-chloro-4-[4-({1-[(2R)-3,3-difluoro-2-hydroxy-2-(3-methoxy-phenyl)propanoyl]azetidin-3-yl}methyl)piperidin-1-yl]-N,N-dimethyl-benzamide]	
118%	31 nM	45%		CN(C)C(=O)c1ccc(N2CCC(CC3CCN(C(=O)C4(c5ccccc5Cl)CC4)CC3)CC2)nc1Cl [Example 7-53, 2-chloro-6-{4-[(1-{[1-(2-chlorophenyl)cyclopropyl]carbonyl}piperidin-4-yl)methyl]piperidin-1-yl}-N,N-dimethylpyridine-3-carboxamide]	EC50 [2, 6]: 571 nM
67%	4 nM	3%	NO IP	CN(CCn1cncn1)C(=O)c1ccc(N2CCC(CC3CCN(C(=O)[C@](O)(c4cc(Cl)cc(Cl)c4)C(F)(F)F)CC3)CC2)cc1Cl [Example 4-26, 2-chloro-4-[4-({1-[(2R)-2-(3,5-dichlorophenyl)-3,3,3-trifuoro-2-hydroxypropanoyl]piperidin-4-yl}methyl)piperidin-1-yl]-N-methyl-N-[2-(1H-1,2,4-triazol-1-yl)ethyl]benzamide]	
				CN(C)C(=O)c1ccc(N2CCC(CC3CCN(S(=O)(=O)c4cc(F)cc(C(F)(F)F)c4)CC3)CC2)cc1Cl [Example 13-15, 2-chloro-4-{4-[(1-{[3-fluoro-5-(trifluoro-methyl)phenyl]-sulfonyl}piperidin-4-yl)methyl]piperidin-1-yl}-N,N-dimethylbenzamide]	EC50 [1, 8]: 171 nM; Emax [1, 9]: 32%; LXR alpha IP (Inflection Point, potency) [2, 10]: NO IP; Emax [2, 11]: 0%
63%	14 nM	10%	NO IP	CN(C)C(=O)c1ccc(N2CCC(SC3CCN(C(=O)[C@](O)(c4cc(Cl)cc(Cl)c4)C(F)(F)F)CC3)CC2)nc1Cl [Example 9-3, 2-chloro-6-[4-({1-[(2R)-2-(3,5-dichlorophenyl)-3,3,3-trifluoro-2-hydroxypropanoyl]-piperidin-4-yl}-sulfanyl)piperidin-1-yl]-N,N-dimethyl-pyridine-3-carboxamide]	
				CN(C)C(=O)c1ccc(N2CCC(CC3CN(S(=O)(=O)c4ccccc4)C3)CC2)cc1Cl [Example 13-1, 2-chloro-N,N-dimethyl-4-(4-((1-(phenylsulfonyl)azetidin-3-yl)methyl)piperidin-1-yl)benzamide]	EC50 [1, 8]: 61 nM; Emax ([1]; read-out: LXR beta Activity @ max dose): 73%; EC50 ([2]; co-activator recruitment to GST-LXRalpha LBD, TR-FRET, read-out: LXR alpha IP (Inflection Point, potency)): 2480 nM; Emax ([2]; read-out: LXR alpha Activity @ max dose): 37%
59%	5 nM	7%	NO IP	CN(C)C(=O)c1ccc(N2CCC(CC3CCN(C(=O)[C@](O)(c4cc(Cl)cc(Cl)c4)C(F)(F)F)CC3)CC2)cc1Cl [Example 2-93, 2-chloro-4-[4-({1-[(2R)-2-(3,5-dichloro-phenyl)-3,3,3-trifluoro-2-hydroxy-propanoyl]piperidin-4-yl}methyl)piperidin-1-yl]-N,N-dimethyl-benzamide]	
59%	91 nM	0%	NO IP	CCOc1cccc([C@@](O)(C(=O)N2CC(CC3CCN(c4ccc(C(=O)NC)c(Cl)c4)CC3)C2)C(F)(F)F)c1 [Example 7-39, 2-chloro-4-[4-({1-[(2R)-2-(3-ethoxyphenyl)-3,3,3-trifluoro-2-hydroxypropanoyl]azetidin-3-yl}methyl)piperidin-1-yl]-N-methylbenzamide]	
54%	23 nM	6%	NO IP	Cc1cc(N2CCC(CC3CCN(C(=O)[C@](O)(c4cc(Cl)cc(Cl)c4)C(F)(F)F)CC3)CC2)ccc1C(=O)N(C)C [Example 2-154, 4-[4-({1-[(2R)-2-(3,5-dichloro-phenyl)-3,3,3-trifluoro-2-hydroxy-propanoyl]piperidin-4-yl}methyl)piperidin-1-yl]-N,N,2-trimethyl-benzamide]	
10%	33 nM	0%	NO IP	CCOc1cccc([C@@](O)(C(=O)N2CCC(CC3CCN(c4ccc(C(=O)N(C)C)c(Cl)c4)CC3)CC2)C(F)F)c1 [Example 2-108, 2-chloro-4-[4-({1-[(2R)-2-(3-ethoxy-phenyl)-3,3-difluoro-2-hydroxy-propanoyl]piperidin-4-yl}methyl)piperidin-1-yl]-N,N-dimethyl-benzamide]	
99%	14 nM	37%		CN(C)C(=O)c1ccc(N2CCC(OC3CCN(C(=O)C(O)(c4cccc(Cl)c4)C(F)(F)F)CC3)CC2)cc1Cl (stereo not drawn) [Example 2-24, 2-chloro-4-[4-({1-[2-(3-chlorophenyl)-3,3,3-trifluoro-2-hydroxy-propanoyl]piperidin-4-yl}oxy)piperidin-1-yl]-N,N-dimethyl-benzamide]	EC50 [2, 6]: 465 nM
80%	33 nM	16%	NO IP	CCc1cccc([C@@](O)(C(=O)N2CC(CC3CCN(c4ccc(C(=O)N(C)C)c(Cl)n4)CC3)C2)C(F)(F)F)c1 [Example 7-43, 2-chloro-6-[4-({1-[(2R)-2-(3-ethylphenyl)-3,3,3-trifluoro-2-hydroxypropanoyl]azetidin-3-yl}methyl)piperidin-1-yl]-N,N-dimethylpyridine-3-carboxamide]	
	22 nM		NO IP	CN(C)C(=O)c1ccc(N2CCC(CC3CN(C(=O)[C@](O)(c4cccc(OC(F)(F)F)c4)C(F)(F)F)C3)CC2)cc1Cl [Example 2-68, 2-chloro-N,N-dimethyl-4-{4-[(1-{(2R)-3,3,3-trifluoro-2-hydroxy-2-[3-(trifluoro-methoxy)phenyl]propanoyl}azetidin-3-yl)methyl]piperidin-1-yl}benzamide]	LXR beta Activity @ max dose (%) [1, 12]: 63%; LXR alpha Activity @ max dose (%) [2, 12]: 16%
112%	1110 nM	16%	NO IP	CN(C)C(=O)c1ccc(N2CCC(CC3CN(C(=O)C(N)(c4ccccc4)C(F)(F)F)C3)CC2)cc1Cl (stereo not drawn) [Example 2-69, 4-(4-{[1-(2-amino-3,3,3-trifluoro-2-phenyl-propanoyl)azetidin-3-yl]methyl}piperidin-1-yl)-2-chloro-N,N-dimethyl-benzamide]	
				CN(C)C(=O)c1ccc(N2CCC(CC3CCN(S(=O)(=O)c4ccc(Cl)s4)CC3)CC2)cc1Cl [Example 13-9, 2-chloro-4-[4-({1-[(5-chlorothiophen-2-yl)-sulfonyl]piperidin-4-yl}methyl)piperidin-1-yl]-N,N-dimethylbenzamide]	EC50 [1, 8]: 230 nM; Emax [1, 9]: 20%; LXR alpha IP (Inflection Point, potency) [2, 10]: NO IP; Emax [2, 11]: 0%

SMILES	Emax [1, 3]	EC50 [1, 4]	Emax [2, 5]	LXR alpha IP (nM) [2, 7]	also measured
O=C(c1ccc(N2CCC(CC3CCN(C(=O)[C@](O)(c4ccccc4)C(F)(F)F)CC3)CC2)cc1Cl)N1C2CCC1CC2 [Example 4-5, (2R)-3-[4-({1-[4-(7-azabicyclo[2.2.1]hept-7-ylcarbonyl)-3-chlorophenyl]piperidin-4-yl}methyl)piperidin-1-yl]-1,1,1-trifluoro-3-oxo-2-phenylpropan-2-ol]	53%	59 nM	29%		EC50 [2, 6]: 401 nM
CN(C)C(=O)c1ccc(N2CCC(CC3CCN(C(=O)C(O)(c4ccccc4)c4ccccc4)CC3)CC2)nc1Cl [Example 7-95, 2-chloro-6-[4-({1-[hydroxy(diphenyl)acetyl]piperidin-4-yl}methyl)piperidin-1-yl]-N,N-dimethylpyridine-3-carboxamide]				NO IP	EC50 ([1]; LXR beta IP (nM), potency (Inflection Point, IP), co-activator recruitment to LXRbeta LBD, in relation to T0901317): 98 nM; Emax ([1]; read-out: LXR beta Activity @ max dose (%)): 21%; Emax ([2]; read-out: LXR alpha Activity @ max dose (%)): 1%
